Source: article PMC10025185, “A continuous in silico learning strategy to identify safety liabilities in compounds used in the leather and textile industry” (Archives of Toxicology, 2023)
Where two headings read alike, the source gives them in different places.

What was measured:
Bhas 42 cell line = experiment: Bhas 42 cell transformation assay (carcinogenesis); type: cell-based
Method: This assay was carried out by adapting the in vitro Bhas 42 cell transformation assay method described in the OECD Guidance Document No. 231 ([2017]) based on the work of Sasaki et al. ([2014]).
It consists of two assays with a different test compound addition schedule to identify compounds with initiating activity (tumour initiators) or promoting activity (tumour promoters). Previously, a cell growth assay for 7 days is performed to set the assay doses of the CTA and another cell growth assay is concurrently performed to the CTA to verify that the selected doses meet the acceptance criteria for the tests.
The carcinogenesis potential of the compound was assayed by means of measuring the frequency of transformed foci (morphologically altered cells that form discrete anchorage-independent colonies) in the Bhas 42 cell line, which can be extrapolated to an assessment of carcinogenic potential. In the transformation assay, the incubation of compounds with two different treatment schedules allowed to identify the initiating or promoting carcinogenic potential of the compounds.

zebrafish embryos = test system: zebrafish embryos
Method: Zebrafish embryos obtained and maintained as described previously for toxicity determination were used to determine (I) terato-carcinogenesis assayed as previously informed (Selderslaghs et al. [2009], [2012]) with modifications. In brief, embryos were incubated for 0 hpf up to 120 hpf in the presence and absence of tested compounds. Each condition was assayed in triplicate with 12 embryos per condition per replicate. The appearance of selected characteristics and malformations with respect to normal development were quantified for the eyes, otoliths, heart, circulation, hatching, skeletal deformities, and body position. For each concentration tested, we assessed the mortality and the presence of malformations at 24, 48, 72, 96, and 120 hpf using a light microscope. When possible, the lethal effects (LC50) and terato-carcinogenic effects (EC50) were determined using the ToxRat software. Based on these values, a teratogenic index (TI) was calculated as LC50/EC50. Based on previous studies, we considered a compound to be a teratogen when TI > 2 at 120 hpf. When no TI could be calculated due to no malformations induction to a degree extensive enough to calculate the EC50 in the presence of high toxicity, the compound was considered a non-teratogen. (II) Neurotoxicity was assayed by evaluating the locomotor activity in embryos exposed to the tested compounds from 0 to 120 hpf using Zebrabox and Zebralab (ViewPoint). We tested three concentrations (24 embryos per concentration) below the NOEC to avoid readily toxic concentrations. After incubation with tested compounds for 120 hs in 96-well plates, the activity of larvae in response to transitions from dark to light was evaluated. The protocol involved an initial 10 min acclimation period inside the Zebrabox, followed by three cycles of light–dark of 10 min each. After the end of each cycle, the integrated activity of each embryo was registered. Statistical analysis was done using ANOVA, followed by the Tukey post hoc test. Differences were considered significant when p < 0.05. Dead embryos were not considered in the analysis. (III) The endocrine-disrupting effect in zebrafish embryos was assayed by real-time PCR as previously reported (Jarque et al. [2019]) with modifications. In brief, 0 hpf embryos (12 embryos per condition in triplicate) were incubated with selected compounds for up to 120 hpf. After incubation, treated (embryos incubated at the concentration right below the NOEC) and control embryos were collected in RNA later and kept at − 20°C until use. RNA was extracted from the samples using the RNeasy Mini Kit (QIAGEN) and was followed by cDNA synthesis using random primers and the AffinityScript Multi Temperature cDNA Synthesis Kit (Agilent Technologies). Finally, real-time PCR was performed for eight target genes to obtain data on the estrogenic (cytochrome P450 family 19 subfamily A member 1: cyp19a1b, and vitellogenin: vtg1), androgenic (cytochrome P450 family 2 […]: cyp2k22, and cytosolic sulphotransferase 3: sult2st3), and thyroid hormone (thyroid peroxidase: tpo, thyroid hormone receptor alpha: tra, transthyretin: ttr, and iodothyronine deiodinase 2: dio2) effect of the tested compounds. Significant changes in gene expression between controls and treated samples were considered as a potential endocrine-disrupting effect.

[1] = CMR experimental result (carcinogenicity, micronucleus and reprotoxicity combined, logical OR)
Source text: For comparison with the prediction results, the results of the carcinogenicity, micronucleus, and reprotoxicity assays were combined using a logical OR operator. Therefore, we consider that compounds with a positive result for any of these three experimental assays is a CMR positive.

[2] = real-time PCR, zebrafish embryos
[3] = positive in any of the three experimental assays
[4] = significant increase in foci frequency in at least two sequential concentrations
[5] = second of two columns headed Neurotoxic

## CCCCC(CC)CN (stereo not shown) [2-Ethylhexylamine]
Bhas 42 cell line
  Carcinogen (C): Yes
Zebrafish embryos; in vivo
  Reprotoxicity (R) Neurotoxic: No
Zebrafish embryos; [2]
  induction of cytochrome P450 2 K: induced
  induction of vitellogenin: induced

## CNC(=O)c1cc(Cl)ccn1.Cl [4-Chloro-N-methylpyridine-2-carboxamide hydrochloride (1:1)]
[1]
  CMR experimental result: NO
Bhas 42 cell line
  Carcinogen (C): No
Zebrafish embryos; in vivo
  Reprotoxicity (R) Endocrine disruptor: No
  Reprotoxicity (R) Neurotoxic: No

## CCN(CC)c1ccc(N=Nc2c(Cl)cc([N+](=O)[O-])cc2[N+](=O)[O-])c(NC(C)=O)c1 [N-[2-[(2-chloro-4,6-dinitrophenyl)azo]-5-(diethylamino)phenyl]acetamide]
[1]; [3]
  CMR experimental result: YES
Bhas 42 cell line; [4]
  Carcinogen (C): Yes
Zebrafish embryos; [2]
  induction of cytochrome P450 2 K: induced
Zebrafish embryos; [5]
  Reprotoxicity (R) Neurotoxic: No

## O=C(OCCc1ccccc1)c1ccccc1 [Phenethyl benzoate]
Bhas 42 cell line
  Carcinogen (C): No
Zebrafish embryos; in vivo
  Reprotoxicity (R) Endocrine disruptor: No
  Reprotoxicity (R) Neurotoxic: No

## Reaction mass of cis-4-(isopropyl) cyclohexanemethanol and trans-4-(isopropyl) cyclohexanemethanol
[1]; [3]
  CMR experimental result: YES
Bhas 42 cell line; [4]
  Carcinogen (C): Yes
Zebrafish embryos; gene expression, 120 hpf, concentration right below NOEC
  Reprotoxicity (R) Endocrine disruptor: No
Zebrafish embryos; [5]
  Reprotoxicity (R) Neurotoxic: No
